Measurements: paper PMC11017246, “Discovery of GLPG2737, a Potent Type 2 Corrector of CFTR for the Treatment of Cystic Fibrosis in Combination with a Potentiator and a Type 1 Co-corrector” (Journal of Medicinal Chemistry, 2024)
Values after ≈ are worked out from the molar mass of the structure shown. Where two headings read alike, the source gives them in different places.

Experiment: Thermodynamic solubility
Assay type: physicochemical
Description: Dry matter of compound was dissolved at 1 mg/mL in buffers at different pH (Fasted simulated gastric fluid and pH 7.4) in glass vials. After 24 h of stirring at room temperature, a sample is taken, centrifuged for 10 min at 10,000 rpm, and filtered. The samples were diluted in duplicate in DMSO (F100 and F10). Then, a final dilution (F100) in 80/20 water/acetonitrile containing the internal standard was used for the LCMS-MS analysis.
A standard curve was made ranging from a 200,000–75 ng/mL stock in DMSO, freshly prepared from dry matter. The standard curve and quality controls were diluted in an F100 in 80/20 water/acetonitrile (with internal standard) and analyzed on LC/MS-MS. The peak areas of the standard curve are plotted in a graph, and a linear or polynomial of the second order equation is used to calculate the unknown concentrations of the test compound.

Structure (SMILES): COC1CCN(C2CCN(c3cc(C(=O)NS(=O)(=O)N(C)C)nc4c3c(C3CCC3)nn4-c3ccc(F)cc3)CC2)CC1 [Compound 52, 3-Cyclobutyl-N-(N,N-dimethylsulfamoyl)-1-(4-fluorophenyl)-4-(4-methoxy-[1,4′-bipiperidin]-1′-yl)-1H-pyrazolo[3,4-b]pyridine-6-carboxamide]
- solubility thermodynamic at 24 h (buffer pH 7.4, pH 7.4, read-out: thermodynamic solubility pH 7.4): 9.9 µg/mL (≈ 16.1 µM)
- solubility thermodynamic at 24 h (fasted simulated gastric fluid, read-out: thermodynamic solubility FASSGF): 10.9 µg/mL (≈ 17.8 µM)
